Data as given in US11236047B2 (ASTEX THERAPEUTICS LIMITED, priority 2017, dated 2022).
Like-named read-outs stand apart in the source and are kept apart here.

Experiments:
[1] = molecular target: MDM2-p53 interaction (Homo sapiens (Human), UniProt Q00987); conditions: for inhibition at 0.001 µM: read-out: MDM2 % inhibition @0.0010; for inhibition at 0.003 µM: read-out: MDM2 % inhibition @0.0030; for inhibition at 0.1 µM: read-out: MDM2 % inhibition @0.10; for inhibition at 0.03 µM: read-out: MDM2 % inhibition @0.030
[2] = system: SN40R2 cells; assay: Protocol B: SN40R2 CellTiter-Glo luminescent cell viability assay; conditions: for inhibition at 10 µM: read-out: SN40R2 % inhibition at 10, Protocol B, SN40R2, at 10 μM; for inhibition at 3 µM: read-out: SN40R2 % inhibition at 3, Protocol B, SN40R2, at 3 μM
[3] = system: SJSA-1 cells; assay: Protocol B: SJSA-1 CellTiter-Glo luminescent cell viability assay; conditions: for inhibition at 10 µM: SJSA-1, read-out: SJSA1 % inhibition at 10
[4] = read-out: SJSA1 IC50, Protocol B, SJSA-1

Chain of MDM2-p53 interaction (Q00987 whole entry): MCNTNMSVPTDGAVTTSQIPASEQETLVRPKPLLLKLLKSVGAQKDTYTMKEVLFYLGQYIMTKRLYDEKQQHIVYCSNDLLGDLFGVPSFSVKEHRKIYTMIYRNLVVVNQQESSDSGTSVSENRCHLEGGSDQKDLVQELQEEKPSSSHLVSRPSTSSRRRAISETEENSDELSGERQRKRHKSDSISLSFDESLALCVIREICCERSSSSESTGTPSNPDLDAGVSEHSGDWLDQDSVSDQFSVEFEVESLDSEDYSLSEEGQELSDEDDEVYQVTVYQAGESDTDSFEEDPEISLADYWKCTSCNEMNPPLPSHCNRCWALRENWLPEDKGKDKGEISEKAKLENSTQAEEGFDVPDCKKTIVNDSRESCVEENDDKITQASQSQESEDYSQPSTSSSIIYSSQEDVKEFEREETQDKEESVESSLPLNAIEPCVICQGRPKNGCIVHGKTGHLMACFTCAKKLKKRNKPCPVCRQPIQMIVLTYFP

Row | inhibition at 0.001 µM [1] | IC50 [3, 4] | SMILES | inhibition at 10 µM [2] | further results
1 | 94% | – | CCC(O)(c1cc(F)c2c(c1)C(=O)N(Cc1ncc(Cl)cn1)[C@@]2(OCC1(C#N)CC1)c1ccc(Cl)cc1)C1(F)CCNCC1 (single isomer, unassigned) [Example 545] | – | inhibition at 3 µM [2]: 4%
2 | 84% | – | CCC(O)(c1cc(F)c2c(c1)C(=O)N(Cc1ncc(Cl)cn1)[C@@]2(O[C@H]1CCOC1)c1ccc(Cl)cc1)C1CCNCC1 (single isomer, unassigned) [Example 448] | – | inhibition at 30 µM ([2]; read-out: SN40R2 % inhibition at 30, Protocol B, SN40R2, at 30 μM): 48%
3 | 86% | – | CCC(O)(c1cc(F)c2c(c1)C(=O)N(Cc1ncc(Cl)cn1)[C@@]2(OC)c1ccc(Cl)cc1)C1(F)CCNCC1 (single isomer, unassigned) [Example 544] | 109% | –
4 | 83% | – | CCC(O)(c1cc(F)c2c(c1)C(=O)N(Cc1ncc(Cl)cn1)[C@@]2(O[C@H]1C[C@@H](O)C1)c1ccc(Cl)cc1)C1(F)CCN(C)CC1 (single isomer, unassigned) [Example 570] | 26% | –
5 | 72% | – | CCC(O)(c1cc(F)c2c(c1)C(=O)N(Cc1ncc(Cl)cn1)[C@@]2(OC)c1ccc(Cl)cc1)[C@H]1CC[C@H](O)CC1 (stereo partly drawn) [Example 511, (3R)-3-(4-chlorophenyl)-2-[(5-chloropyrimidin-2-yl)methyl]-4-fluoro-6-{1-hydroxy-1-[trans-4-hydroxycyclohexyl]propyl}-3-methoxy-2,3-dihydro-1H-isoindol-1-one] | 10% | –
6 | – | – | CC[C@@](O)(c1cc(F)c2c(c1)C(=O)N(Cc1ncc(C#N)cn1)[C@@]2(O[C@H]1CCOC1)c1ccc(Cl)cc1)C1(F)CCOCC1 [Example 507, 2-{[(1R)-1-(4-chlorophenyl)-7-fluoro-5-[(1R)-1-(4-fluorooxan-4-yl)-1-hydroxypropyl]-3-oxo-1-[(3S)-oxolan-3-yloxy]-2,3-dihydro-1H-isoindol-2-yl]methyl}pyrimidine-5-carbonitrile] | – | inhibition at 0.003 µM [1]: 65%; inhibition at 3 µM [2]: 5%
7 | 82% | – | CCC(O)(c1cc(F)c2c(c1)C(=O)N(Cc1ccc(Cl)cn1)[C@@]2(O[C@H]1CCOC1)c1ccc(Cl)cc1)C1(F)CCNCC1 (single isomer, unassigned) [Example 548] | 111% | –
8 | 71% | – | CCC(O)(c1cc(F)c2c(c1)C(=O)N(Cc1ncc(C#N)cn1)[C@@]2(OC)c1ccc(Cl)cc1)[C@H]1CC[C@H](O)CC1 (stereo partly drawn) [Example 504, 2-{[(1R)-1-(4-chlorophenyl)-7-fluoro-5-{1-hydroxy-1-[trans-4-hydroxycyclohexyl]propyl}-1-methoxy-3-oxo-2,3-dihydro-1H-isoindol-2-yl]methyl}pyrimidine-5-carbonitrile] | 0% | –
9 | – | – | CCC(O)(c1cc(F)c2c(c1)C(=O)N(Cc1ccc(C#N)cn1)[C@@]2(OC[C@@H](C)O)c1ccc(Cl)cc1)C1(F)CCOCC1 (stereo partly drawn) [Example 498, 6-{[(1R)-1-(4-chlorophenyl)-7-fluoro-5-[1-(4-fluorooxan-4-yl)-1-hydroxypropyl]-1-[(2R)-2-hydroxypropoxy]-3-oxo-2,3-dihydro-1H-isoindol-2-yl]methyl}pyridine-3-carbonitrile] | – | inhibition at 0.1 µM [1]: 32%; inhibition at 10 µM ([3]; Homo sapiens): 96%
10 | – | – | CCC(O)(c1cc(F)c2c(c1)C(=O)N(Cc1ncc(Cl)cn1)[C@@]2(O[C@H]1C[C@@H](O)C1)c1ccc(Cl)cc1)C1(F)CCNCC1 (single isomer, unassigned) [Example 542] | -1% | inhibition at 0.01 µM ([1]; read-out: MDM2 % inhibition @0.010): 57%
11 | – | – | CN1CCC(C(C)(O)c2cc(F)c3c(c2)C(=O)N(Cc2ncc(Cl)cn2)[C@@]3(OCC2(F)COC2)c2ccc(Cl)cc2)CC1 (single isomer, unassigned) [Example 558] | 6% | inhibition at 0.003 µM [1]: 53%
12 | 47% | – | CCC(O)(c1cc(F)c2c(c1)C(=O)N(Cc1ncc(C#N)cn1)[C@@]2(O[C@H]1CCOC1)c1ccc(Cl)cc1)C1(F)CCN(C)CC1 (single isomer, unassigned) [Example 561] | 12% | –
13 | – | 0.014 µM | CCC(O)(c1cc(F)c2c(c1)C(=O)N(Cc1ncc(Cl)cn1)[C@@]2(O[C@H]1CCOC1)c1ccc(Cl)cc1)C1(F)CCNCC1 (single isomer, unassigned) [Example 541] | – | inhibition at 0.0003 µM ([1]; read-out: MDM2 % inhibition @0.00030): 64%
14 | 41% | 0.092 µM | CCC(O)(CN1CCNCC1)c1cc(F)c2c(c1)C(=O)N(Cc1ncc(Cl)cn1)[C@@]2(OCC1(F)COC1)c1ccc(Cl)cc1 (single isomer, unassigned) [Example 539] | – | –
15 | – | 4.2 µM | CCC(O)(c1cc(F)c2c(c1)C(=O)N(Cc1ncc(Cl)cn1)[C@@]2(OCC1(C(N)=O)CC1)c1ccc(Cl)cc1)c1cn(C)cn1 (stereo partly drawn) [Example 485, 1-({[(1R)-1-(4-chlorophenyl)-2-[(5-chloropyrimidin-2-yl)methyl]-7-fluoro-5-[1-hydroxy-1-(1-methyl-1H-imidazol-4-yl)propyl]-3-oxo-2,3-dihydro-1H-isoindol-1-yl]oxy}methyl)cyclopropane-1-carboxamide] | – | inhibition at 0.1 µM [1]: 58%
16 | 56% | 0.16 µM | CCC(O)(c1cc(F)c2c(c1)C(=O)N(Cc1ccc(C#N)cn1)[C@@]2(O[C@H]1CCOC1)c1ccc(Cl)cc1)c1ccn(C)n1 (single isomer, unassigned) [Example 336] | – | –
17 | – | – | CCC(O)(c1cc(F)c2c(c1)C(=O)N(Cc1ccc(C#N)cn1)[C@@]2(OCCO)c1ccc(Cl)cc1)C1(F)CCOCC1 (stereo partly drawn) [Example 500, 6-{[(1R)-1-(4-chlorophenyl)-7-fluoro-5-[1-(4-fluorooxan-4-yl)-1-hydroxypropyl]-1-(2-hydroxyethoxy)-3-oxo-2,3-dihydro-1H-isoindol-2-yl]methyl}pyridine-3-carbonitrile] | – | inhibition at 0.1 µM [1]: 21%; inhibition at 10 µM ([3]; Homo sapiens): 16%
18 | – | 6.2 µM | CCC(O)(c1cc(F)c2c(c1)C(=O)N(Cc1ccc(C#N)nc1)[C@@]2(O[C@H]1CCOC1)c1ccc(Cl)cc1)c1cn(C)cn1 (single isomer, unassigned) [Example 432] | – | inhibition at 0.03 µM [1]: 45%
19 | – | – | CCC(O)(c1cc(F)c2c(c1)C(=O)N(Cc1ccc(C#N)cn1)[C@@]2(O[C@H]1CCOC1)c1ccc(Cl)cc1)c1cnn(C)c1 (single isomer, unassigned) [Example 358] | – | MDM2 % at stated concentration [1]: 74%@0.0010; IC50 ([3]; read-out: SJSA1 IC50 (μM) (Protocol B), SJSA-1, Protocol B): 0.039 µM
20 | – | – | CO[C@]1(c2ccc(Cl)cc2)c2c(F)cc(C(C)(O)C3CCN(C(C)=O)CC3)cc2C(=O)N1Cc1ncc(Cl)cc1CO (single isomer, unassigned) [Example 424] | – | inhibition at 0.003 µM [1]: 45%; IC50 ([3]; Homo sapiens, SJSA-1, read-out: SJSA1 IC50 (μM), Protocol B, SJSA-1): 0.69 µM
21 | – | 1.9 µM | CCC(O)(c1cc(F)c2c(c1)C(=O)N(Cc1ncc(Cl)cn1)[C@@]2(OCCO)c1ccc(Cl)cc1)[C@H]1CC[C@H](O)CC1 (single isomer, unassigned) [Example 519] | – | inhibition at 0.03 µM [1]: 35%
22 | 58% | 0.2 µM | CCC(O)(c1cc(F)c2c(c1)C(=O)N(Cc1ncc(C#N)cn1)[C@@]2(OC[C@H]1C[C@H](O)C1)c1ccc(Cl)cc1)c1cn(C)cn1 (single isomer, unassigned) [Example 483] | – | –

Row | SMILES | inhibition at 0.001 µM [1] | IC50 [3, 4] | inhibition at 10 µM [2] | further results
23 | CC[C@@](O)(c1cc(F)c2c(c1)C(=O)N(Cc1ncc(Cl)cn1)[C@@]2(O[C@H]1C[C@@H](O)C1)c1ccc(Cl)cc1)C1CCN(C)CC1 [Example 560, (3R)-3-(4-chlorophenyl)-2-[(5-chloropyrimidin-2-yl)methyl]-4-fluoro-6-[(1S)-1-hydroxy-1-(1-methylpiperidin-4-yl)propyl]-3-[cis-3-hydroxycyclobutoxy]-2,3-dihydro-1H-isoindol-1-one] | 30% | – | 3% | –
